How the values were obtained:
Experiment in all cases: relative viability (nuclei count vs DMSO), 5 days (fraction); higher = more cells survive
AZ505 + Decitabine = compound: C1CCC(CC1)N(CCNCCC2=C3C(=C(C=C2)O)NC(=O)CO3)C(=O)CCNCCC4=CC(=C(C=C4)Cl)Cl [AZ505] + Nc1ncn([C@H]2C[C@H](O)[C@@H](CO)O2)c(=O)n1 [Decitabine] (partner 2 µM)
Outline: (§1)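 Each reported value is a median over duplicate plates. It expresses relative viability: treated-well nuclei count divided by vehicle-well nuclei count. Lung cancer cell lines in 1536-well plates were dosed by pin tool a day after seeding, alone with one drug or with a fixed anchor-drug dose plus five library-drug doses (not always all listed) in √10 steps, and nuclei were counted after 5 days.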

AZ505 + Bortezomib = compound: C1CCC(CC1)N(CCNCCC2=C3C(=C(C=C2)O)NC(=O)CO3)C(=O)CCNCCC4=CC(=C(C=C4)Cl)Cl [AZ505] + CC(C)C[C@H](NC(=O)[C@H](Cc1ccccc1)NC(=O)c1cnccn1)B(O)O [Bortezomib] (partner 0.002 µM)
Outline: as §1

Dactolisib + Dasatinib = compound: Cn1c(=O)n(-c2ccc(C(C)(C)C#N)cc2)c2c3cc(-c4cnc5ccccc5c4)ccc3ncc21 [Dactolisib] + Cc1nc(Nc2ncc(C(=O)Nc3c(C)cccc3Cl)s2)cc(N2CCN(CCO)CC2)n1 [Dasatinib] (partner 0.075 µM)
Outline: as §1

Dactolisib + Luminespib = compound: Cn1c(=O)n(-c2ccc(C(C)(C)C#N)cc2)c2c3cc(-c4cnc5ccccc5c4)ccc3ncc21 [Dactolisib] + CCNC(=O)c1noc(-c2cc(C(C)C)c(O)cc2O)c1-c1ccc(CN2CCOCC2)cc1 [Luminespib] (partner 0.01 µM)
Outline: as §1

Cell Line | relative viability (AZ505 + Decitabine; first compound 0.08 µM) | relative viability (AZ505 + Decitabine; first compound 0.253 µM) | relative viability (AZ505 + Decitabine; first compound 0.8 µM) | relative viability (AZ505 + Decitabine; first compound 2.53 µM) | relative viability (AZ505 + Decitabine; first compound 8 µM) | relative viability (AZ505 + Bortezomib; first compound 0.08 µM) | relative viability (AZ505 + Bortezomib; first compound 0.253 µM) | relative viability (AZ505 + Bortezomib; first compound 0.8 µM) | relative viability (AZ505 + Bortezomib; first compound 2.53 µM) | relative viability (AZ505 + Bortezomib; first compound 8 µM) | relative viability (Dactolisib + Dasatinib; first compound 0.002 µM) | relative viability (Dactolisib + Dasatinib; first compound 0.006325 µM) | relative viability (Dactolisib + Dasatinib; first compound 0.02 µM) | relative viability (Dactolisib + Dasatinib; first compound 0.06325 µM) | relative viability (Dactolisib + Dasatinib; first compound 0.2 µM) | relative viability (Dactolisib + Luminespib; first compound 0.002 µM) | relative viability (Dactolisib + Luminespib; first compound 0.006325 µM) | relative viability (Dactolisib + Luminespib; first compound 0.02 µM) | relative viability (Dactolisib + Luminespib; first compound 0.06325 µM) | relative viability (Dactolisib + Luminespib; first compound 0.2 µM)
HCC-366 | 0.342 | 0.344 | 0.316 | 0.316 | 0.341 | 0.933 | 1.01 | 1.02 | 0.952 | 1.11 | 0.598 | 0.565 | 0.597 | 0.341 | 0.136 |  |  |  |  | 
HCC-827 | 0.325 | 0.313 | 0.324 | 0.37 | 0.351 | 0.92 | 0.957 | 1.01 | 1 | 1.1 | 0.28 | 0.331 | 0.301 | 0.238 | 0.207 | 0.532 | 0.626 | 0.538 | 0.401 | 0.144
HOP-62 | 0.21 | 0.221 | 0.259 | 0.205 | 0.204 | 0.911 | 0.82 | 1.01 | 0.839 | 0.945 | 0.637 | 0.578 | 0.625 | 0.349 | 0.277 | 0.983 | 0.812 | 0.888 | 0.543 | 0.561
IA-LM |  |  |  |  |  | 0.59 | 0.867 | 0.835 | 0.866 | 0.896 |  |  |  |  |  |  |  |  |  | 
LC-2-ad | 0.797 | 0.835 | 0.776 | 0.776 | 0.841 | 1 | 1.04 | 0.915 | 1.01 | 1.03 | 0.495 | 0.486 | 0.491 | 0.349 | 0.297 | 1.14 | 0.923 | 0.922 | 0.551 | 0.524
LCLC-97TM1 | 0.195 | 0.253 | 0.244 |  | 0.228 | 0.579 | 0.461 | 0.461 |  | 1.08 | 0.811 | 0.85 | 0.858 | 0.853 | 0.741 | 0.753 | 0.754 | 0.661 | 0.46 | 0.213
LCLC-103H | 0.73 | 0.674 | 0.707 | 0.751 | 0.702 | 0.894 | 1.05 | 1.01 | 1.02 | 1.06 | 0.529 | 0.422 | 0.45 | 0.429 | 0.307 | 1.03 | 0.905 | 0.844 | 0.483 | 0.444
LK-2 | 0.22 | 0.32 | 0.331 | 0.33 | 0.329 |  |  |  |  |  | 0.279 | 0.322 | 0.31 | 0.182 | 0.144 | 0.152 | 0.198 | 0.195 | 0.171 | 0.197
NCI-H358 | 0.2 | 0.209 | 0.194 | 0.218 | 0.21 |  |  |  |  |  | 0.162 | 0.157 | 0.191 | 0.0796 | 0.0694 | 0.399 | 0.289 | 0.273 | 0.203 | 0.111
NCI-H522 | 0.602 | 0.689 | 0.657 | 0.599 | 0.634 |  |  |  |  |  | 0.993 | 0.791 | 0.822 | 0.689 | 0.581 | 1.15 | 1.17 | 1.22 | 0.659 | 0.596
